Reference: PubChem BioAssay (NCI)
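How tested: cells in 96-well plates exposed to compound for 48 hours at five concentrations. TGI is the concentration that stops growth completely.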

Key:
Test in all cases: NCI anticancer screen, dose series, 48 h
[1] = test system: HOP-62 NSCLC
[2] = test system: MDA-MB-231 breast
[3] = test system: NCI-H23 lung
[4] = test system: SK-MEL-28 melanoma
[5] = test system: SW-620 colon
[6] = test system: DLD-1 colon
[7] = test system: DMS 114 small cell lung
[8] = test system: DMS 273 small cell lung
[9] = test system: KM20L2 colon
[10] = test system: M19-MEL melanoma
[11] = test system: RXF-631 renal
[12] = test system: SNB-78 CNS
[13] = test system: XF 498 CNS

SMILES | TGI [1] | TGI [2] | TGI [3] | TGI [4] | TGI [5] | TGI [6] | TGI [7] | TGI [8] | TGI [9] | TGI [10] | TGI [11] | TGI [12] | TGI [13]
Nc1nc2c(C(=O)O)c3ccc([N+](=O)[O-])cc3c(=O)n2c2ccccc12 | > 100 µM | 79.1 µM | 64.9 µM | > 100 µM | > 100 µM |  |  |  |  |  |  |  | 
CC1(C)CC(=O)c2c(nc3c4c([nH]c(-c5ccc(Br)cc5)c24)CC(C)(C)C3)C1 | > 100 µM | > 100 µM | > 100 µM | > 100 µM | > 100 µM |  |  |  |  |  |  |  | 
Nc1ccc(Nc2cc(=O)[nH]c(=O)[nH]2)cc1Cl |  | > 100 µM | > 100 µM | > 100 µM | > 100 µM |  |  |  |  |  |  |  | 
CN(C)CCc1c2c(nc3ccccc13)C(=O)c1cccnc1C2=O |  | 26.5 µM | 0.49 µM | 1.76 µM | 1.91 µM |  |  |  |  |  |  |  | 
O=[N+]([O-])c1ccc(C(O)(C#CCN2CCCC2)c2ccccc2)cc1 (stereo not drawn) | > 100 µM | > 100 µM | > 100 µM | 34 µM | > 100 µM |  |  |  |  |  |  |  | 
CC1CC(C#N)=C2NCCN2C1=O (stereo not drawn) | > 100 µM | > 100 µM | > 100 µM | > 100 µM | > 100 µM |  |  |  |  |  |  |  | 
CCN(CCN(CC)C(=O)Nc1ccccc1)C(=O)Nc1ccccc1 | > 100 µM | > 100 µM | > 100 µM | > 100 µM | > 100 µM |  |  |  |  |  |  |  | 
CN=C(Nc1cccc(C(F)(F)F)c1)SCc1ccc(N=C=S)cc1 | 31.7 µM | 32.3 µM | 31.4 µM | 48.9 µM | 41 µM |  |  |  |  |  |  |  | 
CO/N=C1/c2sccc2[C@H](NC(=O)C(Cc2ccccc2)NC(=O)OC(C)(C)C)[C@@H]1O (stereo partly drawn) | > 100 µM | > 100 µM | > 100 µM | > 100 µM | > 100 µM |  |  |  |  |  |  |  | 
COc1cc(Oc2nc3ccc(C(F)(F)F)cc3nc2-c2ccccc2)cc(OC)c1OC | 44.4 µM | > 100 µM | > 100 µM | > 100 µM |  |  |  |  |  |  |  |  | 
Nc1ncnc2c1ncn2[C@@H]1O[C@H](COC(c2ccccc2)(c2ccccc2)c2ccccc2)[C@@H](OC(=S)Oc2ccccc2)[C@@H]1F | 46 µM | 23.7 µM | 16 µM | 33.5 µM | 29.7 µM |  |  |  |  |  |  |  | 
C=C(C)[C@@H]1CC[C@]2(C(=O)OC)CC[C@]3(C)[C@H](CC[C@@H]4[C@@]5(C)CC[C@H](O)C(C)(C)[C@@H]5CC[C@]43C)[C@@H]12 | 41.3 µM | > 100 µM | > 100 µM | 47.2 µM | 38.8 µM |  |  |  |  |  |  |  | 
O=C(O)c1ccccc1N=Nc1c(O)c(S(=O)(=O)O)cc2cc(S(=O)(=O)O)ccc12 | > 100 µM | > 100 µM | > 100 µM | > 100 µM | > 100 µM |  |  |  |  |  |  |  | 
O=c1[nH]c2nc3ccccc3c(=O)n2/c1=C/c1ccco1 | > 100 µM | > 100 µM | > 100 µM | > 100 µM | > 100 µM |  |  |  |  |  |  |  | 
CC[C@@]1(O)C(=O)OCc2c1cc1n(c2=O)Cc2c-1nc1ccccc1c2/C=N\NC(=O)C(N)CCSC (stereo partly drawn) |  | > 100 µM | 0.0526 µM | > 100 µM | > 41.1 µM |  |  |  |  |  |  |  | 
Cn1c(=O)n2n(c1=O)C(C)(C13CC4CC(CC(C4)C1)C3)C13CC4CC(CC1C4)CC23 (stereo not drawn) | > 100 µM | > 100 µM | > 100 µM | > 100 µM | > 100 µM |  |  |  |  |  |  |  | 

SMILES | TGI [1] | TGI [2] | TGI [3] | TGI [4] | TGI [5] | TGI [6] | TGI [7] | TGI [8] | TGI [9] | TGI [10] | TGI [11] | TGI [12] | TGI [13]
O=C1Cc2c([nH]c3ccc(C(=O)O)cc23)-c2ccccc2N1 | > 100 µM | > 100 µM | > 100 µM | > 100 µM | > 100 µM |  |  |  |  |  |  |  | 
O=C(c1ccco1)N(C(=O)N1CCN(c2ccccc2)CC1)S(=O)(=O)c1ccccc1 | > 100 µM | > 100 µM | 53.2 µM | > 100 µM | > 100 µM |  |  |  |  |  |  |  | 
CC(=O)OCC1OC(OCCCOP(=S)(OCCC#N)OCC2OC(n3ccc(N)nc3=O)C(OC(=O)c3ccccc3)C2OC(=O)c2ccccc2)C(OC(C)=O)C(OC(C)=O)C1OC(C)=O (stereo not drawn) | > 100 µM | > 100 µM | > 100 µM | > 100 µM | > 100 µM |  |  |  |  |  |  |  | 
COC(=O)C1CCC(=O)N1C(c1ccc2c(c1)OCO2)c1cc(OC)c(OC)c(OC)c1 (stereo not drawn) | > 100 µM | > 100 µM | > 100 µM | > 100 µM | > 100 µM |  |  |  |  |  |  |  | 
O=C(c1ccccc1)c1c(CC(O)c2ccncc2)n(C(=O)c2ccccc2)c2ccccc12 (stereo not drawn) | 31.6 µM |  | 35 µM | 32.4 µM | 39.2 µM | > 100 µM | 40.2 µM | 37.1 µM | 34 µM | 33 µM |  |  | 
COC(=O)Cc1c(-c2c(CC(=O)OC)c3ccccc3n2C2OC(COC(C)=O)C(OC(C)=O)C(OC(C)=O)C2OC(C)=O)[nH]c2ccccc12 (stereo not drawn) | > 100 µM | > 100 µM | > 100 µM | > 100 µM | > 100 µM |  |  |  |  |  |  |  | 
COc1ccc(NC(=O)C(=O)/C=C(\O)c2ccccc2)cc1 | > 10 µM | > 10 µM | > 10 µM | > 10 µM | > 10 µM |  |  |  |  |  |  |  | 
COc1ccc(C2=NOC(N)(c3ccc(OC)cc3)C2)cc1 (stereo not drawn) | > 100 µM | > 100 µM | > 100 µM | > 100 µM | > 100 µM |  |  |  |  |  |  |  | 
C=C1CC[C@@H](C)[C@](C)(CCc2ccoc2)C/C=C\C=C/1C(=O)O | > 100 µM | > 100 µM | > 100 µM | 48.6 µM | > 100 µM |  |  |  |  |  |  |  | 
CN(CCCNC(=O)c1cc(-c2ccccc2)nc2ccccc12)CCCNC(=O)c1cc(-c2ccccc2)nc2ccccc12 | 4.13 µM | 7.93 µM | 16.1 µM | 3.27 µM | 3.38 µM |  |  |  |  |  |  |  | 
CSc1c(C#N)c(N)n(-c2ccc(Cl)cc2)c(=O)c1C#N |  | > 100 µM | > 100 µM | > 100 µM | > 100 µM |  |  |  |  |  |  |  | 
COC(=O)C(=O)Cc1nc2ccccc2o1 | > 100 µM |  | > 100 µM | > 100 µM |  | > 100 µM | > 100 µM |  |  | > 100 µM | > 100 µM | > 100 µM | > 100 µM
COc1ccc(CNc2cc(=O)n(C)c(=O)[nH]2)cc1 | > 100 µM | > 100 µM | > 100 µM | > 100 µM | > 100 µM |  |  |  |  |  |  |  | 
c1ccc(CC2COC(c3cccs3)=N2)cc1 (stereo not drawn) | > 100 µM | > 100 µM | > 100 µM | > 100 µM | > 100 µM |  |  |  |  |  |  |  | 
CCOC(=O)C1CCCCN1C(=O)Cc1c[nH]c2ccccc12 (stereo not drawn) | > 100 µM | > 100 µM | > 100 µM | > 100 µM | > 100 µM |  |  |  |  |  |  |  | 
